Results as given in patent publication US6720184B1, “Method of altering sphingolipid metabolism and detecting fumonisin ingestion and contamination” (Emory University, priority 1991, dated 2004).

Key:
[1] = system: serum sphingolipids; assay: long-chain bases liberated from total serum lipids by acid hydrolysis, ponies fed fumonisin; type: in vivo, pony
From the text: Feeding protocols—Clinically normal ponies of varying age and sex were conditioned on the control diet for 21 days prior to the trial. Horse 341 was a 6 year old gelding (173-193 Kg), 299 was a 12 year old mare (205-215 Kg), 164 was a 12 year old mare (206-290 Kg) and 166 was a 16 year old mare (143-164 Kg). During the conditioning period and throughout the trial, all ponies received alfalfa hay by free choice. The test groups were fed varying levels of fumonisin (15 to 44 ppm) for varying lengths of time.
Analysis of serum long-chain bases—Blood was drawn approximately twice a week, centrifuged to obtain serum, and aliquots were frozen for analyses of free sphingosine and sphinganine by HPLC as is known in the art as described in (28). To quantitate total sphingolipids in some samples, the extracts were acid hydrolyzed before preparing the samples for HPLC.

[2] = system: rat hepatocytes; assay: mass measurements of phospholipids, total sphingolipids and free long-chain bases in hepatocytes; type: cell-based; conditions: for Mass Phosphatidylcholine / Mass Phosphatidylethanolamine / Mass Phosphatidylserine / Mass Total sphingolipids: 16 h
Description: Mass measurements of the long-chain bases were conducted by HPLC, as is known in the art as previously described in (28), with C20-sphinganine as an internal standard. To quantitate total sphingolipids, the extracts were acid hydrolyzed before preparing the samples for HPLC and corrected, if necessary, for any losses during hydrolysis or extraction by spiking replicate samples with a known amount of ceramide or sphingomyelin.

[3] = Pony 208, fumonisin feed (level not given), day 2
[4] = Pony 208, fumonisin feed (level not given), day 6
[5] = Pony 208, fumonisin feed (level not given), day 10
[6] = Pony 208, fumonisin feed (level not given), day 13

SMILES: CCCC[C@@H](C)[C@@H](OC(=O)C[C@@H](CC(=O)O)C(=O)O)[C@H](C[C@@H](C)C[C@H](O)CCCC[C@@H](O)C[C@H](O)[C@H](C)N)OC(=O)C[C@@H](CC(=O)O)C(=O)O [fumonisin B1]
- Sphingosine Total (−free) ([1]; Pony 164, feed 44 ppm, day 7): 102 pmol/mL
- Sphinganine Total (acid hydrolysis of serum lipids) ([1]; Pony 164, feed 44 ppm, day 10): 786 ± 234 pmol/mL
- Sphinganine Total (−free) ([1]; Pony 164, feed 44 ppm, day 10): 503 pmol/mL
- Sphingosine Total (acid hydrolysis of serum lipids) ([1]; Pony 164, feed 44 ppm, day 10): 2960 ± 585 pmol/mL
- Sphingosine Total (−free) ([1]; Pony 164, feed 44 ppm, day 10): 2740 pmol/mL
- Sphinganine Total (acid hydrolysis of serum lipids) ([1]; Pony 166, feed 44 ppm, day 2): 131 ± 40 pmol/mL
- Sphinganine Total (−free) ([1]; Pony 166, feed 44 ppm, day 2): 94 pmol/mL
- Sphingosine Total (acid hydrolysis of serum lipids) ([1]; Pony 166, feed 44 ppm, day 2): 1020 ± 313 pmol/mL
- Sphingosine Total (−free) ([1]; Pony 166, feed 44 ppm, day 2): 974 pmol/mL
- Sphinganine Total (acid hydrolysis of serum lipids) ([1]; Pony 166, feed 44 ppm, day 7): 206 ± 18 pmol/mL
- Sphinganine Total (−free) ([1]; Pony 166, feed 44 ppm, day 7): 144 pmol/mL
- Sphingosine Total (acid hydrolysis of serum lipids) ([1]; Pony 166, feed 44 ppm, day 7): 950 ± 154 pmol/mL
- Sphingosine Total (−free) ([1]; Pony 166, feed 44 ppm, day 7): 985 pmol/mL
- Sphinganine Total (acid hydrolysis of serum lipids) ([1]; Pony 166, feed 44 ppm, day 10): 212 ± 28 pmol/mL
- Sphinganine Total (−free) ([1]; Pony 166, feed 44 ppm, day 10): 34 pmol/mL
- Sphingosine Total (acid hydrolysis of serum lipids) ([1]; Pony 166, feed 44 ppm, day 10): 634 ± 192 pmol/mL
- Sphingosine Total (−free) ([1]; Pony 166, feed 44 ppm, day 10): 540 pmol/mL
- Sphinganine Total (acid hydrolysis of serum lipids) ([1]; Pony 166, feed 44 ppm, day 13): 823 ± 54 pmol/mL
- Sphinganine Total (−free) ([1]; Pony 166, feed 44 ppm, day 13): 650 pmol/mL
- Sphingosine Total (acid hydrolysis of serum lipids) ([1]; Pony 166, feed 44 ppm, day 13): 1740 ± 150 pmol/mL
- Sphingosine Total (−free) ([1]; Pony 166, feed 44 ppm, day 13): 1640 pmol/mL
- Sphinganine Total (acid hydrolysis of serum lipids) [1, 3]: 387 ± 26 pmol/mL
- Sphinganine Total (−free) [1, 3]: 107 pmol/mL
- Sphingosine Total (acid hydrolysis of serum lipids) [1, 3]: 3490 ± 358 pmol/mL
- Sphingosine Total (−free) [1, 3]: 3190 pmol/mL
- Sphinganine Total (acid hydrolysis of serum lipids) [1, 4]: 718 ± 75 pmol/mL
- Sphinganine Total (−free) [1, 4]: 60 pmol/mL
- Sphingosine Total (acid hydrolysis of serum lipids) [1, 4]: 2390 ± 388 pmol/mL
- Sphingosine Total (−free) [1, 4]: 2030 pmol/mL
- Sphinganine Total (acid hydrolysis of serum lipids) [1, 5]: 2040 ± 70 pmol/mL
- Sphinganine Total (−free) [1, 5]: 200 pmol/mL
- Sphingosine Total (acid hydrolysis of serum lipids) [1, 5]: 4450 ± 10 pmol/mL
- Sphingosine Total (−free) [1, 5]: 3460 pmol/mL
- Sphinganine Total (acid hydrolysis of serum lipids) [1, 6]: 9990 ± 379 pmol/mL
- Sphinganine Total (−free) [1, 6]: 9604 pmol/mL
- Sphingosine Total (acid hydrolysis of serum lipids) [1, 6]: 15970 ± 1576 pmol/mL
- Sphingosine Total (−free) [1, 6]: 15040 pmol/mL
- Mass Phosphatidylcholine ([2]; 1 μM): 105 ± 1.8 nmol/mg protein
- Mass Phosphatidylethanolamine ([2]; 1 μM): 44.9 ± 1.4 nmol/mg protein
- Mass Phosphatidylserine ([2]; 1 μM): 15.5 ± 2.6 nmol/mg protein
- Mass Total sphingolipids ([2]; 1 μM): 6.7 ± 0.3 nmol/mg protein
- fold increase of sphinganine versus control ([2]; 1 μM, 4 d): 110 fold
- free sphingosine ([2]; 1 μM, 4 d): 52±1 pmol/dish
- mass of free sphinganine ([2]; 1 μM, 4 d): 1499±18 pmol/dish
- level of total sphingolipids ([2]; 1 μM, 4 d, cells on Matrigel): 2.1±0.1 nmol/dish
- reduction of level of total sphingolipids ([2]; 1 μM, 4 d, cells on Matrigel): about half
- Mass Phosphatidylcholine ([2]; 10 μM): 112 ± 3.4 nmol/mg protein
- Mass Phosphatidylethanolamine ([2]; 10 μM): 44.4 ± 0.9 nmol/mg protein
- Mass Phosphatidylserine ([2]; 10 μM): 12.3 ± 1.9 nmol/mg protein
- Mass Total sphingolipids ([2]; 10 μM): 6.5 ± 0.7 nmol/mg protein
- amount of free sphingosine ([2]; within the first 2 h (FIG. 4B)): only a small reduction
